Literature values in patent US20130084245A1, “PET MONITORING OF A-BETA-DIRECTED IMMUNOTHERAPY” (Wyeth LLC, priority 2010, published 2013).

Assays:
[1] = target: T1, aggregated fibrillar deposits of the Aβ peptide (Homo sapiens, UniProt P05067)
T1 construct: aggregated fibrillar deposits of the Aβ peptide

[2] = target: T2, Aβ deposits (Homo sapiens, UniProt P05067); conditions: areas of brain association cortex targeted by Aβ deposits
T2 construct: aggregated fibrillar deposits of the Aβ peptide

[3] = target: T2, Aβ deposits; conditions: preliminary study

T1 sequence (P05067 672-713 limits assumed): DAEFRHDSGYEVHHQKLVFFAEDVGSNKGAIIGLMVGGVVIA
T2 sequence (P05067 672-713 limits assumed): as above

Compound	Affinity for aggregated fibrillar deposits of the Aβ peptide [1]	Selectivity of binding to postmortem human brain ([1]; low nanomolar concentrations typically used in PET studies)	Retention in AD patients compared with controls [2]	Performance as PET ligand in AD and controls [3]
CNc1ccc(-c2nc3ccc(O)cc3s2)cc1 [PiB, 2-(4′-methylaminophenyl)-6-hydroxybenzothiazole]	low nanomolar affinity	selective for fibrillar Aβ deposits	approximately two-fold	
CNc1ccc(/C=C/c2ccc(OCCOCCOCC[18F])cc2)cc1 [^18F-BAY94-9172]				performed comparably to ^11C-PIB
